Measurements taken from ChEMBL document CHEMBL4043199, “Synthesis and optimization of 4,5,6,7-tetrahydrooxazolo[4,5-c]pyridines as potent and orally-active metabotropic glutamate receptor 5 negative allosteric modulators” (Bioorg Med Chem Lett, 2017).
≈ marks a conversion by molar mass, not a printed value.

Legend:
[1] = biological target: Metabotropic glutamate receptor 5 (Homo sapiens, UniProt P41594); test: Negative allosteric modulation of human recombinant mGluR5 expressed in HEK293 cells assessed as inhibition of glutamate-induced calcium mobilization preincubated for 2 mins followed glutamate addition measured by fluorescence assay; assay type: functional, cell-based
[2] = Metabolic stability in human hepatic microsomes assessed as parent compound remaining at 1 uM after 30 mins in presence of NADPH by LC-MS/MS analysis relative to control; assay type: ADME, Microsome; settings: liver microsomes, read-out: Stability
[3] = Metabolic stability in rat hepatic microsomes assessed as parent compound remaining at 1 uM after 30 mins in presence of NADPH by LC-MS/MS analysis relative to control; assay type: ADME, Microsome; settings: liver microsomes, read-out: Stability
[4] = Aqueous solubility of compound at pH 7.4; assay type: physicochemical; settings: aqueous medium
Cytochrome P450 1A2 = biological target: T1, Cytochrome P450 1A2 (Homo sapiens, UniProt P05177); test: Inhibition of CYP1A2 in human liver microsomes using phenacetin as substrate after 10 mins by LC-MS/MS analysis; assay type: ADME
T1 sequence (P05177 whole entry): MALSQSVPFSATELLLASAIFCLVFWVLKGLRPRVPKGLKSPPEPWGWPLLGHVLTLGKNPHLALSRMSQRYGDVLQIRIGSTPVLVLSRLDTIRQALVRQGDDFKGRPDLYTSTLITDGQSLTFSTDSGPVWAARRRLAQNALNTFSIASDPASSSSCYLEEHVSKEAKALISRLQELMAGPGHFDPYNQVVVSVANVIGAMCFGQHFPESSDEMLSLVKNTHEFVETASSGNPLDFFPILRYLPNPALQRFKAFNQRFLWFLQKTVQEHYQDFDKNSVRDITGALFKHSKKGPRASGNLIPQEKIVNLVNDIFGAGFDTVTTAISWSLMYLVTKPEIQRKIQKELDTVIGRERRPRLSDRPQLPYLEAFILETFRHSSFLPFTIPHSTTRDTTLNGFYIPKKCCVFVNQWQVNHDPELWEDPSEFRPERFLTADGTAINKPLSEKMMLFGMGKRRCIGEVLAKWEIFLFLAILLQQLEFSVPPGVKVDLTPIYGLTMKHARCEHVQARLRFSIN

Cytochrome P450 2A6 = biological target: T2, Cytochrome P450 2A6 (Homo sapiens, UniProt P11509); test: Inhibition of CYP2A6 in human liver microsomes using coumarin as substrate after 10 mins by LC-MS/MS analysis; assay type: ADME
T2 sequence (P11509 whole entry): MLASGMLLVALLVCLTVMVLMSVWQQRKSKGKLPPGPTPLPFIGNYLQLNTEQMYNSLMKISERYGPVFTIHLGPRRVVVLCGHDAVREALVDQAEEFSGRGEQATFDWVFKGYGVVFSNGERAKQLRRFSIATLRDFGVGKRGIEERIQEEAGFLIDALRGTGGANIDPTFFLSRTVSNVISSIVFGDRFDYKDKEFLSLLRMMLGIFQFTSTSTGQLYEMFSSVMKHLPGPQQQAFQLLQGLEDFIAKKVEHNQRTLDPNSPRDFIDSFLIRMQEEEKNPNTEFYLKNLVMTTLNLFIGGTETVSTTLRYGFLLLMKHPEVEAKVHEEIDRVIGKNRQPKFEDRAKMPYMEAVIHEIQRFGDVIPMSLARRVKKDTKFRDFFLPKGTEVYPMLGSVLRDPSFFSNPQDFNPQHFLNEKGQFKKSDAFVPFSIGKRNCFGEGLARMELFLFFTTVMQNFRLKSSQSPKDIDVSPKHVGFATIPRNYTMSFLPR

Cytochrome P450 2C8 = biological target: T3, Cytochrome P450 2C8 (Homo sapiens, UniProt P10632); test: Inhibition of CYP2C8 in human liver microsomes using amodiaquine as substrate after 10 mins by LC-MS/MS analysis; assay type: ADME
T3 sequence (P10632 whole entry): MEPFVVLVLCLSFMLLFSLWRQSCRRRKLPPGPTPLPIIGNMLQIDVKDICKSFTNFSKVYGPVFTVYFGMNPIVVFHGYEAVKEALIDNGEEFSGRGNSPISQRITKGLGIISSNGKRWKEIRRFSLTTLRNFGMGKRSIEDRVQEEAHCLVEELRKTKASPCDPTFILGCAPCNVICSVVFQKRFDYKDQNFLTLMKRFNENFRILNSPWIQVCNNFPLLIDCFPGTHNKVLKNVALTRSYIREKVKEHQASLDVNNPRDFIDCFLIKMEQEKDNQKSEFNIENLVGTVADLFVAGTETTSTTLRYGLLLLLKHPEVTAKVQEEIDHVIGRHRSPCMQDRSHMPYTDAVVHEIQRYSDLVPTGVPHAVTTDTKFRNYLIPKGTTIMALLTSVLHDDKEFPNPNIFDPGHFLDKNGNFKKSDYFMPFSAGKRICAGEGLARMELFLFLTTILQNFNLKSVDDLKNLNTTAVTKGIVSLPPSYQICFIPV

Cytochrome P450 2C9 = Cytochrome P450 2C9 (Homo sapiens, UniProt P11712); test: Inhibition of CYP2C9 in human liver microsomes using diclofenac as substrate after 10 mins by LC-MS/MS analysis; assay type: ADME
Cytochrome P450 2C19 = Cytochrome P450 2C19 (Homo sapiens, UniProt P33261); test: Inhibition of CYP2C19 in human liver microsomes using (S)-mephenytoin as substrate after 10 mins by LC-MS/MS analysis; assay type: ADME
Cytochrome P450 2D6 = Cytochrome P450 2D6 (Homo sapiens, UniProt P10635); test: Inhibition of CYP2D6 in human liver microsomes using bufuralol as substrate after 10 mins by LC-MS/MS analysis; assay type: ADME
Cytochrome P450 3A4 = Cytochrome P450 3A4 (Homo sapiens, UniProt P08684); test: Inhibition of CYP3A4 in human liver microsomes using midazolam as substrate after 10 mins by LC-MS/MS analysis; assay type: ADME
[5] = […] of CYP450 in human liver microsomes as substrate after 10 mins by LC-MS/MS analysis; assay type: ADME
[6] = Permeability of the compound at pH 7.4 by PAMPA; assay type: physicochemical; settings: read-out: permeability
P-gp = test: Substrate activity at P-gp (unknown origin) assessed as efflux ratio; assay type: ADME; settings: human, not told
[7] = biological target: Voltage-gated inwardly rectifying potassium channel KCNH2 (Homo sapiens, UniProt Q12809); test: Inhibition of human ERG
Salmonella typhimurium = test: Genotoxicity in Salmonella typhimurium by Ames test; assay type: toxicity; settings: salmonella enterica subsp. enterica serovar typhimurium
[8] = Half life in monkey at 0.5 mg/kg, iv; assay type: ADME, organism-based, Macaca mulatta; settings: rhesus monkey, in vivo
[9] = Half life in rat at 1 mg/kg, iv; assay type: ADME, organism-based; settings: in vivo
[10] = Clearance in monkey at 0.5 mg/kg, iv after 24 hrs; assay type: ADME, organism-based, Macaca mulatta; settings: rhesus monkey, in vivo
[11] = Clearance in rat at 1 mg/kg, iv after 24 hrs; assay type: ADME, organism-based; settings: in vivo
[12] = Volume of distribution at steady state in monkey at 0.5 mg/kg, iv after 24 hrs; assay type: ADME, organism-based, Macaca mulatta; settings: rhesus monkey, in vivo, read-out: Vdss
[13] = Volume of distribution at steady state in rat at 1 mg/kg, iv after 24 hrs; assay type: ADME, organism-based; settings: in vivo, read-out: Vdss
[14] = AUC in rat at 10 mg/kg, po; assay type: ADME, organism-based; settings: in vivo
[15] = AUC in monkey at 0.5 mg/kg, iv; assay type: ADME, organism-based, Macaca mulatta; settings: rhesus monkey, in vivo
[16] = AUC in monkey at 10 mg/kg, po; assay type: ADME, organism-based, Macaca mulatta; settings: rhesus monkey, in vivo
[17] = AUC in rat at 1 mg/kg, iv; assay type: ADME, organism-based; settings: in vivo
[18] = Cmax in rat at 10 mg/kg, po; assay type: ADME, organism-based; parameters: dose 10 mg/kg, route oral; settings: in vivo
[19] = Cmax in monkey at 10 mg/kg, po; assay type: ADME, organism-based, Macaca mulatta; parameters: dose 10 mg/kg, route oral; settings: rhesus monkey, in vivo
[20] = (§1) Oral bioavailability in rat at 10 mg/kg; assay type: ADME, organism-based; settings: in vivo
[21] = Oral bioavailability in monkey at 10 mg/kg; assay type: ADME, organism-based, Macaca mulatta; settings: rhesus monkey, in vivo
Rattus norvegicus [22] = test: Ex vivo receptor occupancy at mGluR5 in Sprague-Dawley rat brain po administered daily for 4 days in presence of [3H]-MPEPy by liquid scintillation counting method; assay type: functional, organism-based
Rattus norvegicus [23] = test: Ex vivo receptor occupancy at mGluR5 in Sprague-Dawley rat brain at 1 mg/kg, po administered daily for 4 days in presence of [3H]-MPEPy by liquid scintillation counting method relative to control; assay type: functional
Rattus norvegicus [24] = test: as §1; assay type: ADME, organism-based; settings: in vivo
Rattus norvegicus [25] = test: Toxicity in rat at 100 mg/kg, po qd administered via gavage for 14 days; assay type: organism-based; settings: in vivo, 336 h

Chain of Metabotropic glutamate receptor 5 (P41594 whole entry): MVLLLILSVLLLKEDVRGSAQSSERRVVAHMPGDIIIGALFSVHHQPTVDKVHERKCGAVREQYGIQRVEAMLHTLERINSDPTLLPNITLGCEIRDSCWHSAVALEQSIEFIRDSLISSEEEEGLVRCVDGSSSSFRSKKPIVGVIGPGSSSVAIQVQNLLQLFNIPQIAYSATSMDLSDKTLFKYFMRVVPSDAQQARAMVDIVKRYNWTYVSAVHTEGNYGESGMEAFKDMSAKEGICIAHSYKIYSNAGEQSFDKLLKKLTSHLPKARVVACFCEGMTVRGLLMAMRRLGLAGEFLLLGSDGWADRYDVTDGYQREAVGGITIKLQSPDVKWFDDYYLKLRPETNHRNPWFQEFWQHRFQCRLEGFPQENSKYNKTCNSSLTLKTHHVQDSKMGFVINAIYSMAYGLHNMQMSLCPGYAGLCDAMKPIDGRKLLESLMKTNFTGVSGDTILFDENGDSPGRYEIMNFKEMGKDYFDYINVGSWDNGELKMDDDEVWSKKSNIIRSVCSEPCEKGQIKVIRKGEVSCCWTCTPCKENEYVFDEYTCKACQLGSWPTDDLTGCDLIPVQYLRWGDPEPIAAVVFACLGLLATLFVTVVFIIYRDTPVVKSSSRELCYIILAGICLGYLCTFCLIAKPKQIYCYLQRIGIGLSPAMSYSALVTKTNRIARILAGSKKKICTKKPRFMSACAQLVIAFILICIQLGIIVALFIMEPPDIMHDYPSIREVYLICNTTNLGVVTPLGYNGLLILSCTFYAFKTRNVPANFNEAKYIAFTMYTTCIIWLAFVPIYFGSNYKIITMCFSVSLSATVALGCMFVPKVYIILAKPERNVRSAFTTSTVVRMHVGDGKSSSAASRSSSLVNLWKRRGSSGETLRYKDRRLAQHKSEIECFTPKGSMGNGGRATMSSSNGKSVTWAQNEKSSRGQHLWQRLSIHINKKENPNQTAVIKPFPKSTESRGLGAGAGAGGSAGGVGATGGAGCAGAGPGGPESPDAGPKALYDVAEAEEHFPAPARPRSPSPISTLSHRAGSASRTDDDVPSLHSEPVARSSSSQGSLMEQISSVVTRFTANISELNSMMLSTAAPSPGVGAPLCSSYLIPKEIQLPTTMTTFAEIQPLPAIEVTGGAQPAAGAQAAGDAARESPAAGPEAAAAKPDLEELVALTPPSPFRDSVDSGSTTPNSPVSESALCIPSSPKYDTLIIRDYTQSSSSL
Chain of Cytochrome P450 2C19 (P33261 whole entry): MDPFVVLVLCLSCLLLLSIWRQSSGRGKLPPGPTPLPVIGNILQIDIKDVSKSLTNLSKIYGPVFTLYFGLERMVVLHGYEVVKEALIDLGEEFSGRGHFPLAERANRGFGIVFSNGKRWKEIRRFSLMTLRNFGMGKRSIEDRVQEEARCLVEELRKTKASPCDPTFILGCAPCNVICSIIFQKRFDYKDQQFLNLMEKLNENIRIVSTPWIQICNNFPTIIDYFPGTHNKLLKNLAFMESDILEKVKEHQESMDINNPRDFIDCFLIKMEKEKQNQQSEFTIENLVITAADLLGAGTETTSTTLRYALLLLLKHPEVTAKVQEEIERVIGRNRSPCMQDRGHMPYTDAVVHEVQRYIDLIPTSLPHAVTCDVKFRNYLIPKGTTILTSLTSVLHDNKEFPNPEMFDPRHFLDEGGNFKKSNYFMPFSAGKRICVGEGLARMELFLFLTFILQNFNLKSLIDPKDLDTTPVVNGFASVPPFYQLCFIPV
Chain of Cytochrome P450 3A4 (P08684 whole entry): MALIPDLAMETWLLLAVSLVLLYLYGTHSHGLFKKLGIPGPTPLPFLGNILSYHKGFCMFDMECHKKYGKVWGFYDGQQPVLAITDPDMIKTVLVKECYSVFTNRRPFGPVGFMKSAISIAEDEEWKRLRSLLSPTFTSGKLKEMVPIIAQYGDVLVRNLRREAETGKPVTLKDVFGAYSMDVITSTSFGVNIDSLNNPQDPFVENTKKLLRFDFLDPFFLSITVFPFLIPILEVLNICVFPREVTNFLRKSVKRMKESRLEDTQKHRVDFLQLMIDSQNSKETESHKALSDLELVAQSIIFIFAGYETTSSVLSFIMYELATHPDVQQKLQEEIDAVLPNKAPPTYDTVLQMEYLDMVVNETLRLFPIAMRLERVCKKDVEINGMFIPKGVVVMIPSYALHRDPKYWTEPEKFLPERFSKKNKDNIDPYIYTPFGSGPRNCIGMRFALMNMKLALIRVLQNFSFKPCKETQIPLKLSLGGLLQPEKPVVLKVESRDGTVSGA
Chain of Cytochrome P450 2D6 (P10635 whole entry): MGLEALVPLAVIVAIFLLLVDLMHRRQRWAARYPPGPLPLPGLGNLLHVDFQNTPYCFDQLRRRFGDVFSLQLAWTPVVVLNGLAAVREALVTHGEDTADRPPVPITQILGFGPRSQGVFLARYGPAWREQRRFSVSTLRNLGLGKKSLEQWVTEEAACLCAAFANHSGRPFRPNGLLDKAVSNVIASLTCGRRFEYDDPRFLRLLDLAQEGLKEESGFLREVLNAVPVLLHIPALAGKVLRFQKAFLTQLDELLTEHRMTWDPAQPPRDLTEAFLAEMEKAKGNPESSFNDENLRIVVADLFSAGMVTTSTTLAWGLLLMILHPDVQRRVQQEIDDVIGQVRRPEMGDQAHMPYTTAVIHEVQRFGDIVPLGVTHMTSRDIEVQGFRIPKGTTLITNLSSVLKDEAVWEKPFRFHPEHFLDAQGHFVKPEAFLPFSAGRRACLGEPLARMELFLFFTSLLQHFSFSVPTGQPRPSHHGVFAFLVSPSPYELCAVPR
Chain of Cytochrome P450 2C9 (P11712 whole entry): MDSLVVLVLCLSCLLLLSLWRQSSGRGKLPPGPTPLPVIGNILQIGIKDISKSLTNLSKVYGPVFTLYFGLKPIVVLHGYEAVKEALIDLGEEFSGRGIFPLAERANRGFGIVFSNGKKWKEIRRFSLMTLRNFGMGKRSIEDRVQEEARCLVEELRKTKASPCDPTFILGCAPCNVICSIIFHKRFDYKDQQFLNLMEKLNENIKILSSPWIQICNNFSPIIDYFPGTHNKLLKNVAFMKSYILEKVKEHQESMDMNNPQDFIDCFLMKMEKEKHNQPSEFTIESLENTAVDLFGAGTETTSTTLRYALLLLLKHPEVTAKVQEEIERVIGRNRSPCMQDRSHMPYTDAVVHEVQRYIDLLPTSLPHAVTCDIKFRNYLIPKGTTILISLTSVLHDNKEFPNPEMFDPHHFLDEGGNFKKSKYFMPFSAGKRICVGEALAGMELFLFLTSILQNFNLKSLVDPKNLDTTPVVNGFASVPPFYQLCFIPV
Chain of Voltage-gated inwardly rectifying potassium channel KCNH2 (Q12809 whole entry): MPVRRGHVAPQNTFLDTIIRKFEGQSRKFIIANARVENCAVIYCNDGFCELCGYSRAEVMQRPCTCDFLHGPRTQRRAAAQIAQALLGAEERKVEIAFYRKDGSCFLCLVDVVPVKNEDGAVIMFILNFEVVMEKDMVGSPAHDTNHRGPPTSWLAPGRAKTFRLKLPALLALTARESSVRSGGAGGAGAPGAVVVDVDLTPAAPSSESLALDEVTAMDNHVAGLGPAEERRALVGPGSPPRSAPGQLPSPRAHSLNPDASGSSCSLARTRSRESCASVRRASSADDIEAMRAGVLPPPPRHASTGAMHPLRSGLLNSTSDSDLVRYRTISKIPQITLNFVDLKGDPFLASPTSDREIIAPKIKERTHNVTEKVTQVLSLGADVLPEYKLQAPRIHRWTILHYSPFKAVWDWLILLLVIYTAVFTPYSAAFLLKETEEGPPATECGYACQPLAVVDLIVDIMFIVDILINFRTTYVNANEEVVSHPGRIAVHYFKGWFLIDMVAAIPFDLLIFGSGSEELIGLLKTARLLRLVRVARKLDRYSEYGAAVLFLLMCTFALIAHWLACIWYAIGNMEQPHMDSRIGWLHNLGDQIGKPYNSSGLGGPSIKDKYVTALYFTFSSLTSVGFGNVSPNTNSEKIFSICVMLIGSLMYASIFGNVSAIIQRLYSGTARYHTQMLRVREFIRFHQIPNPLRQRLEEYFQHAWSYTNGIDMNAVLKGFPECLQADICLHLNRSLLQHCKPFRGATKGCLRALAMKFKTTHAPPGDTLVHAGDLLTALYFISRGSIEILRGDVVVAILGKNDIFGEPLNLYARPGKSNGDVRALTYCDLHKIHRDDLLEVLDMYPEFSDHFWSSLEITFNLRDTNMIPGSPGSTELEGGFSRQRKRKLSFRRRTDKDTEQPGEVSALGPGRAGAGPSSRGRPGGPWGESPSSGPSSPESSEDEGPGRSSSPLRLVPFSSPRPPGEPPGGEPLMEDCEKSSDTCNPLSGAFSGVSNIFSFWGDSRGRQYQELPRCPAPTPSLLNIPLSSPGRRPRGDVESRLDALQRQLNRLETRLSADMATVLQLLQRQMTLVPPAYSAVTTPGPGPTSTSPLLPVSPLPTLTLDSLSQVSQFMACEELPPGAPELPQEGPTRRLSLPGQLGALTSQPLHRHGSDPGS

`O=C(c1cc(F)cc(Cl)c1)N1CCc2oc(-c3ccc(F)cn3)nc2C1` showed an IC50 [1] of 0.038 µM, a remaining at 0.5 h, 1 µM [2] of 91 to 97% and a remaining at 0.5 h, 1 µM [3] of 91 to 97%. The solubility [4] was 6 µg/mL (≈ 16 µM), the IC50 (Cytochrome P450 1A2) was over 50 µM and the IC50 (Cytochrome P450 2A6) was over 50 µM. It also gave an IC50 (Cytochrome P450 2C8) of over 50 µM, an IC50 (Cytochrome P450 2C9) of over 50 µM and an IC50 (Cytochrome P450 2C19) of over 50 µM. The IC50 (Cytochrome P450 2D6) was over 50 µM, the IC50 (Cytochrome P450 3A4) was over 50 µM and the Activity [5] was “Not Active”. It also gave a Papp [6] of 37.1 ×10⁻⁶ cm/s, an efflux ratio (P-gp) of 0.9 and an IC50 [7] of 19 µM. For the same compound, the Activity (Salmonella typhimurium) was “Non-Toxic”, the half-life [8] was 16.1 h and the half-life [9] was 8.9 h. For the same compound, the clearance [10] was 1.7 mL/min/kg, the clearance [11] was 3.8 mL/min/kg and the Vd [12] was 2.1 L/kg. It also gave a Vd [13] of 2.4 L/kg, an AUC [14] of 34500 ng·h/mL and an AUC [15] of 5090 ng·h/mL. The AUC [16] was 62400 ng·h/mL, the AUC [17] was 4340 ng·h/mL and the Cmax [18] was 1730 ng/mL. It also gave a Cmax [19] of 2880 ng/mL, a bioavailability [20] of 80% and a bioavailability [21] of 61%. The Activity (Rattus norvegicus [22]) was “Dose-dependent effect” and the Occ (Rattus norvegicus [23]) was 48%.
Work on `Cc1ccc(-c2nc3c(o2)CCN(C(=O)c2ccccc2)C3)nc1` yielded an IC50 [1] of 0.177 µM.
For `O=C(c1ccccc1)N1CCc2oc(-c3ccc(Cl)cn3)nc2C1`, the IC50 [1] was 0.032 µM.
`O=C(c1cccc(F)c1)N1CCc2oc(-c3ccc(F)cn3)nc2C1` gave an IC50 [1] of 0.063 µM, a remaining at 0.5 h, 1 µM [2] of 91 to 97% and a remaining at 0.5 h, 1 µM [3] of 91 to 97%. The solubility [4] was 23 µg/mL (≈ 67.4 µM), the IC50 (Cytochrome P450 1A2) was over 50 µM and the IC50 (Cytochrome P450 2A6) was over 50 µM. It also gave an IC50 (Cytochrome P450 2C8) of over 50 µM, an IC50 (Cytochrome P450 2C9) of over 50 µM and an IC50 (Cytochrome P450 2C19) of over 50 µM. For the same compound, the IC50 (Cytochrome P450 2D6) was over 50 µM, the IC50 (Cytochrome P450 3A4) was over 50 µM and the Activity [5] was “Not Active”. The Papp [6] was 31.7 ×10⁻⁶ cm/s, the Activity (Salmonella typhimurium) was “Non-Toxic” and the half-life [8] was 9.5 h. The half-life [9] was 2 h, the clearance [10] was 2.8 mL/min/kg and the clearance [11] was 10.8 mL/min/kg. The Vd [12] was 2.2 L/kg, the Vd [13] was 1.6 L/kg and the AUC [14] was 26100 ng·h/mL. The AUC [15] was 3050 ng·h/mL, the AUC [16] was 69200 ng·h/mL and the AUC [17] was 1550 ng·h/mL. It also gave a Cmax [18] of 2070 ng/mL, a Cmax [19] of 4060 ng/mL and an F (Rattus norvegicus [24]) of 168%. The bioavailability [21] was 114%, the Activity (Rattus norvegicus [22]) was “Dose-dependent effect” and the Activity (Rattus norvegicus [25]) was “Non-Toxic”.
In the case of `Cc1cc(Cl)cc(C(=O)N2CCc3oc(-c4ccc(F)cn4)nc3C2)c1`, the IC50 [1] is reported as 0.046 µM, the remaining at 0.5 h, 1 µM [2] is reported as over 91% and the remaining at 0.5 h, 1 µM [3] is reported as over 91%.
Compound `N#Cc1ccc(-c2nc3c(o2)CCN(C(=O)c2ccccc2)C3)nc1` has an IC50 [1] of 0.237 µM.
In the case of `O=C(c1ccc(F)cc1)N1CCc2oc(-c3ccc(F)cn3)nc2C1`, the IC50 [1] is reported as 0.09 µM, the remaining at 0.5 h, 1 µM [2] is reported as over 91% and the remaining at 0.5 h, 1 µM [3] is reported as over 91%.
